Laboratory results: the supplement of paper PMC10307832

How the values were obtained:
Experiment in all cases: relative viability (nuclei count vs DMSO), 5 days (fraction); higher = more cells survive
201T = test system: 201T
Summary of the method: (§1)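 For relative viability, nuclei counts in treated wells were divided by those in vehicle wells. Lung cancer cell lines had been pin-tool dosed in 1536-well plates the day after seeding and cultured for 5 days, then fixed and stained in one step (final 0.05% Triton X-100, 1% formaldehyde, 1 ug/ml Hoechst) and imaged at 4×. Doses were one drug alone or a fixed anchor-drug dose plus five library-drug doses (not always all listed) in √10 steps, and values are duplicate-plate medians.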

COR-L23 = test system: COR-L23
Summary of the method: as §1

EPLC-272H = test system: EPLC-272H
Summary of the method: as §1

H3255 = test system: H3255
Summary of the method: as §1

HCC-44 = test system: HCC-44
Summary of the method: as §1

LOU-NH91 = test system: LOU-NH91
Summary of the method: as §1

NCI-H1650 = test system: NCI-H1650
Summary of the method: as §1

NCI-H1734 = test system: NCI-H1734
Summary of the method: as §1

NCI-H1793 = test system: NCI-H1793
Summary of the method: as §1

NCI-H1993 = test system: NCI-H1993
Summary of the method: as §1

NCI-H2023 = test system: NCI-H2023
Summary of the method: as §1

NCI-H2085 = test system: NCI-H2085
Summary of the method: as §1

NCI-H2170 = test system: NCI-H2170
Summary of the method: as §1

NCI-H2347 = test system: NCI-H2347
Summary of the method: as §1

NCI-H2405 = test system: NCI-H2405
Summary of the method: as §1

NCI-H3122 = test system: NCI-H3122
Summary of the method: as §1

NCI-H441 = test system: NCI-H441
Summary of the method: as §1

NCI-H520 = test system: NCI-H520
Summary of the method: as §1

NCI-H647 = test system: NCI-H647
Summary of the method: as §1

PC-14 = test system: PC-14
Summary of the method: as §1

RERF-LC-KJ = test system: RERF-LC-KJ
Summary of the method: as §1

SW 900 = test system: SW 900
Summary of the method: as §1

Compound: C=C1C(=O)O[C@@H](CCCCCCCC)[C@@H]1C(=O)O [C-75] + Cc1cc(Nc2cc(N3CCN(C)CC3)nc(Sc3ccc(NC(=O)C4CC4)cc3)n2)n[nH]1 [Tozasertib] (partner 0.1 µM)
- relative viability (201T; first compound 0.08 µM): 0.985
- relative viability (201T; first compound 0.253 µM): 1.12
- relative viability (201T; first compound 0.8 µM): 1.04
- relative viability (201T; first compound 2.53 µM): 0.932
- relative viability (201T; first compound 8 µM): 1.02
- relative viability (COR-L23; first compound 0.08 µM): 0.232
- relative viability (COR-L23; first compound 0.253 µM): 0.267
- relative viability (COR-L23; first compound 0.8 µM): 0.209
- relative viability (COR-L23; first compound 2.53 µM): 0.172
- relative viability (COR-L23; first compound 8 µM): 0.179
- relative viability (EPLC-272H; first compound 0.08 µM): 0.299
- relative viability (EPLC-272H; first compound 0.253 µM): 0.243
- relative viability (EPLC-272H; first compound 0.8 µM): 0.22
- relative viability (EPLC-272H; first compound 2.53 µM): 0.25
- relative viability (EPLC-272H; first compound 8 µM): 0.208
- relative viability (H3255; first compound 0.08 µM): 0.609
- relative viability (H3255; first compound 0.253 µM): 0.856
- relative viability (H3255; first compound 0.8 µM): 0.505
- relative viability (H3255; first compound 2.53 µM): 0.701
- relative viability (H3255; first compound 8 µM): 0.751
- relative viability (HCC-44; first compound 0.08 µM): 0.989
- relative viability (HCC-44; first compound 0.253 µM): 0.942
- relative viability (HCC-44; first compound 0.8 µM): 0.9
- relative viability (HCC-44; first compound 2.53 µM): 0.878
- relative viability (HCC-44; first compound 8 µM): 0.714
- relative viability (LOU-NH91; first compound 0.08 µM): 0.694
- relative viability (LOU-NH91; first compound 0.253 µM): 0.561
- relative viability (LOU-NH91; first compound 0.8 µM): 0.597
- relative viability (LOU-NH91; first compound 2.53 µM): 0.495
- relative viability (LOU-NH91; first compound 8 µM): 0.642
- relative viability (NCI-H1650; first compound 0.08 µM): 0.413
- relative viability (NCI-H1650; first compound 0.253 µM): 0.647
- relative viability (NCI-H1650; first compound 2.53 µM): 0.422
- relative viability (NCI-H1650; first compound 8 µM): 0.38
- relative viability (NCI-H1734; first compound 0.08 µM): 0.286
- relative viability (NCI-H1734; first compound 0.253 µM): 0.225
- relative viability (NCI-H1734; first compound 0.8 µM): 0.262
- relative viability (NCI-H1734; first compound 2.53 µM): 0.198
- relative viability (NCI-H1734; first compound 8 µM): 0.235
- relative viability (NCI-H1793; first compound 0.08 µM): 0.306
- relative viability (NCI-H1793; first compound 0.253 µM): 0.315
- relative viability (NCI-H1793; first compound 0.8 µM): 0.344
- relative viability (NCI-H1793; first compound 2.53 µM): 0.258
- relative viability (NCI-H1793; first compound 8 µM): 0.335
- relative viability (NCI-H1993; first compound 0.08 µM): 0.611
- relative viability (NCI-H1993; first compound 0.253 µM): 0.623
- relative viability (NCI-H1993; first compound 0.8 µM): 0.59
- relative viability (NCI-H1993; first compound 2.53 µM): 0.495
- relative viability (NCI-H1993; first compound 8 µM): 0.529
- relative viability (NCI-H2023; first compound 0.08 µM): 0.407
- relative viability (NCI-H2023; first compound 0.253 µM): 0.443
- relative viability (NCI-H2023; first compound 0.8 µM): 0.302
- relative viability (NCI-H2023; first compound 2.53 µM): 0.384
- relative viability (NCI-H2023; first compound 8 µM): 0.409
- relative viability (NCI-H2085; first compound 0.08 µM): 0.798
- relative viability (NCI-H2085; first compound 0.253 µM): 0.746
- relative viability (NCI-H2085; first compound 0.8 µM): 0.79
- relative viability (NCI-H2085; first compound 2.53 µM): 0.803
- relative viability (NCI-H2085; first compound 8 µM): 0.67
- relative viability (NCI-H2170; first compound 0.08 µM): 0.682
- relative viability (NCI-H2170; first compound 0.253 µM): 0.826
- relative viability (NCI-H2170; first compound 0.8 µM): 0.796
- relative viability (NCI-H2170; first compound 2.53 µM): 0.291
- relative viability (NCI-H2170; first compound 8 µM): 0.861
- relative viability (NCI-H2347; first compound 0.08 µM): 0.558
- relative viability (NCI-H2347; first compound 0.253 µM): 0.74
- relative viability (NCI-H2347; first compound 0.8 µM): 0.517
- relative viability (NCI-H2347; first compound 8 µM): 0.534
- relative viability (NCI-H2405; first compound 0.08 µM): 0.747
- relative viability (NCI-H2405; first compound 0.253 µM): 0.683
- relative viability (NCI-H2405; first compound 0.8 µM): 0.756
- relative viability (NCI-H2405; first compound 2.53 µM): 0.772
- relative viability (NCI-H2405; first compound 8 µM): 0.81
- relative viability (NCI-H3122; first compound 0.08 µM): 0.414
- relative viability (NCI-H3122; first compound 0.253 µM): 0.514
- relative viability (NCI-H3122; first compound 0.8 µM): 0.403
- relative viability (NCI-H3122; first compound 8 µM): 0.518
- relative viability (NCI-H441; first compound 0.08 µM): 0.624
- relative viability (NCI-H441; first compound 0.253 µM): 0.895
- relative viability (NCI-H441; first compound 0.8 µM): 0.713
- relative viability (NCI-H441; first compound 2.53 µM): 0.543
- relative viability (NCI-H441; first compound 8 µM): 0.729
- relative viability (NCI-H520; first compound 0.08 µM): 0.428
- relative viability (NCI-H520; first compound 0.253 µM): 0.393
- relative viability (NCI-H520; first compound 0.8 µM): 0.395
- relative viability (NCI-H520; first compound 2.53 µM): 0.295
- relative viability (NCI-H520; first compound 8 µM): 0.46
- relative viability (NCI-H647; first compound 0.08 µM): 0.24
- relative viability (NCI-H647; first compound 0.253 µM): 0.365
- relative viability (NCI-H647; first compound 0.8 µM): 0.211
- relative viability (NCI-H647; first compound 2.53 µM): 0.457
- relative viability (NCI-H647; first compound 8 µM): 0.233
- relative viability (PC-14; first compound 0.08 µM): 0.597
- relative viability (PC-14; first compound 0.253 µM): 0.479
- relative viability (PC-14; first compound 0.8 µM): 0.548
- relative viability (PC-14; first compound 2.53 µM): 0.544
- relative viability (PC-14; first compound 8 µM): 0.578
- relative viability (RERF-LC-KJ; first compound 0.08 µM): 0.561
- relative viability (RERF-LC-KJ; first compound 0.253 µM): 0.568
- relative viability (RERF-LC-KJ; first compound 0.8 µM): 0.557
- relative viability (RERF-LC-KJ; first compound 2.53 µM): 0.493
- relative viability (RERF-LC-KJ; first compound 8 µM): 0.536
- relative viability (SW 900; first compound 0.08 µM): 0.595
- relative viability (SW 900; first compound 0.253 µM): 0.919
- relative viability (SW 900; first compound 0.8 µM): 0.571
- relative viability (SW 900; first compound 2.53 µM): 0.704
- relative viability (SW 900; first compound 8 µM): 0.506
